Source: patent publication US20050282755A1, “Compositions having antimicrobial activity and uses thereof” (priority 2004, published 2005)
≈ marks a conversion by molar mass, not a printed value. Like-named read-outs stand apart in the source and are kept apart here. Non-standard residues stand in square brackets, D forms with d. Residues, ends and D or L forms follow the SMILES beside them. *: point of attachment. Lauroyl = CCCCCCCCCCCC(=O)*; Octanoyl = CCCCCCCC(=O)*

Tests used:
Assay type in all cases: cell-based
[1] = system: Staphylococcus aureus ATCC 29213; experiment: MIC, NCCLS M7-A6 broth microdilution, cation-adjusted Mueller Hinton broth (Table 9, no superscript); settings: ATCC 29213
Summary of the method: (§1)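 MIC, read as the lowest peptide concentration without visible growth compared with peptide-free wells, after overnight incubation at 37° C. Wells held cation-adjusted Mueller Hinton broth and a final inoculum of 5×10^5 to 1×10^6 CFU/mL from log-phase culture.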

[2] = system: Salmonella dublin (Lane); experiment: MIC, NCCLS M7-A6 broth microdilution (Table 9, no superscript)
Summary of the method: as §1

[3] = system: Propionibacterium acnes ATCC 6919
Procedure: A second method that was used to determine the MIC in P. acnes for selected antimicrobial agents was a non-standard broth microdilution method that used an assay buffer composed of reinforced Clostridial broth. Briefly, a log-phase bacterial culture of P. acnes was used to inoculate wells of a 96-well plate so that the final inoculum for each well contained 5×10^5 to 1×10^6 CFU/milliliter. […] Plates were incubated for 48-72 hours at 37° C. in a GasPak anaerobic chamber. The lowest concentration of peptide that contained no visible growth as evidenced by a lack of turbidity when compared to the control (no peptide) was determined as the MIC. MIC values that utilized this method of MIC determination are indicated in Table 9 with a subscript letter “d.”

[4] = system: Candida albicans ATCC 18804; experiment: MIC in yeasts, NCCLS M27-A2 broth microdilution, RPMI 1640 (Table 9, letter e); settings: ATCC 18804
Summary of the method: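 Broth microdilution per NCCLS M27-A2 in RPMI 1640 with glutamine and phenol red, final inoculum 0.5×10^3–2.5×10^3 CFU/milliliter. Incubated 24 to 48 hours at 37° C; MIC is the lowest peptide concentration with no visible growth.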

[5] = system: Escherichia coli ATCC 25922; experiment: MIC, NCCLS M7-A6 broth microdilution (Table 9, no superscript); settings: ATCC 25922
Summary of the method: as §1

[6] = system: Pseudomonas aeruginosa ATCC 27853; experiment: as above; settings: ATCC 27853
Summary of the method: as §1

[7] = system: Staphylococcus epidermidis ATCC 12228; experiment: as above; settings: ATCC 12228
Summary of the method: as §1

[8] = system: Propionibacterium acnes ATCC 6919; experiment: MIC, agar dilution method NCCLS M11-A6, Brucella agar, anaerobic (Table 9, superscript c); settings: ATCC 6919
Summary of the method: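 Agar dilution per NCCLS M11-A6 on Brucella agar; final inoculum 1.5×10^8 CFU/milliliter applied to plates, incubated 48-96 hours at 37° C. under anaerobic (GasPak) conditions. MIC = lowest peptide concentration with no colony growth.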

SMILES | MIC S. aureus [1] | MIC S. dublin [2] | MIC P. acnes [3] | MIC C. albicans [4] | MIC E. coli [5] | MIC P. aeruginosa [6] | MIC S. epidermidis [7] | MIC P. acnes [8]
CCCCCCCCCCCC(=O)N[C@@H](C(=O)N[C@H](CCCNC(=N)N)C(=O)N[C@@H](C(=O)N[C@H](C)C(=O)N[C@H](CCCNC(=N)N)C(=O)N[C@@H](C(=O)NCC(=O)N[C@H](CCCNC(=N)N)C(=O)N[C@H](CO)C(=O)N[C@H](CCCNC(=N)N)C(=O)N[C@H](Cc1c[nH]c2ccccc12)C(=O)N[C@H](CCCNC(=N)N)C(=O)N[C@H](CC(=O)O)C(=O)N[C@H](Cc1c[nH]c2ccccc12)C(=O)N[C@H](C)C(=O)N[C@H](CCCNC(=N)N)C(=O)N[C@H](CC(N)=O)C(=O)N[C@H](Cc1ccccc1)C(=O)N[C@H](CCSC)C(=O)N[C@H](CCCNC(=N)N)C(N)=O)[C@H](C)O)C(C)C)[C@H](C)O [Peptide 77, Lauryl-trvartgrsrwrdwarnfmr-NH2] (Lauroyl-[dT][dR][dV][dA][dR][dT]G[dR][dS][dR][dW][dR][dD][dW][dA][dR][dN][dF][dM][dR]-NH2) | 16 µg/mL (≈ 5.8 µM) | 16 µg/mL (≈ 5.8 µM) | 12.5 µg·days/mL | 8e ug/mL | – | – | – | –
CSCC[C@H](NC(=O)[C@H](Cc1ccccc1)NC(=O)[C@H](CC(N)=O)NC(=O)[C@H](CCCNC(=N)N)NC(=O)[C@H](C)NC(=O)[C@@H](NC(=O)[C@H](CC(=O)O)NC(=O)[C@H](CCCNC(=N)N)NC(=O)[C@H](Cc1c[nH]c2ccccc12)NC(=O)[C@H](CCCNC(=N)N)NC(=O)[C@H](CO)NC(=O)[C@H](CCCNC(=N)N)NC(=O)CNC(=O)[C@@H](NC(=O)[C@H](CCCNC(=N)N)NC(=O)[C@H](C)NC(=O)[C@@H](NC(=O)[C@H](CCCNC(=N)N)NC(=O)[C@@H](NC(C)=O)[C@@H](C)O)C(C)C)[C@@H](C)O)C(C)C)C(=O)N[C@@H](CCCNC(=N)N)C(N)=O [Peptide 38] (Ac-TRVARTGRSRWRDVARNFMR-NH2) | >64 µg/mL | >64 µg/mL | 25 µg·days/mL | 16e ug/mL | – | – | – | –
CCCCCCCCCCCC(=O)N[C@H](C(=O)N[C@@H](CCCNC(=N)N)C(=O)N[C@H](C(=O)N[C@@H](C)C(=O)N[C@@H](CCCNC(=N)N)C(=O)N[C@H](C(=O)NCC(=O)N[C@@H](CCCNC(=N)N)C(=O)N[C@@H](CO)C(=O)N[C@@H](CCCNC(=N)N)C(=O)N[C@@H](Cc1c[nH]c2ccccc12)C(=O)N[C@@H](CCCNC(=N)N)C(=O)N[C@@H](CC(=O)O)C(=O)N[C@H](C(=O)N[C@@H](C)C(=O)N[C@@H](CCCNC(=N)N)C(=O)N[C@@H](CC(N)=O)C(=O)N[C@@H](Cc1ccccc1)C(=O)N[C@@H](CCSC)C(=O)N[C@@H](CCCNC(=N)N)C(N)=O)C(C)C)[C@@H](C)O)C(C)C)[C@@H](C)O [Peptide 69] (Lauroyl-TRVARTGRSRWRDVARNFMR-NH2) | 4 µg/mL (≈ 1.5 µM) | 16 µg/mL (≈ 5.99 µM) | 12.5 µg·days/mL | 16e ug/mL | – | – | – | –
CCCCCCCCCCCC(=O)N[C@H](CCCNC(=N)N)C(=O)N[C@H](CO)C(=O)N[C@H](CCCNC(=N)N)C(=O)N[C@H](Cc1c[nH]c2ccccc12)C(=O)N[C@H](CCCNC(=N)N)C(=O)N[C@H](CC(=O)O)C(=O)N[C@H](Cc1c[nH]c2ccccc12)C(=O)N[C@H](CO)C(=O)N[C@H](CCCNC(=N)N)C(=O)N[C@H](CC(N)=O)C(=O)N[C@H](Cc1ccccc1)C(=O)N[C@H](CCSC)C(=O)N[C@H](CCCNC(=N)N)C(N)=O [Peptide 89, Lauryl-rsrwrdwsrnfmr-NH2] (Lauroyl-[dR][dS][dR][dW][dR][dD][dW][dS][dR][dN][dF][dM][dR]-NH2) | 4 µg/mL (≈ 1.97 µM) | 4 µg/mL (≈ 1.97 µM) | 25 µg·days/mL | 32e ug/mL | – | – | – | –
CSCC[C@H](NC(=O)[C@H](Cc1ccccc1)NC(=O)[C@H](CC(N)=O)NC(=O)[C@H](CCCNC(=N)N)NC(=O)[C@H](CO)NC(=O)[C@H](Cc1c[nH]c2ccccc12)NC(=O)[C@H](CC(=O)O)NC(=O)[C@H](CCCNC(=N)N)NC(=O)[C@H](Cc1c[nH]c2ccccc12)NC(=O)[C@H](CCCNC(=N)N)NC(=O)[C@H](CO)NC(=O)[C@H](CCCNC(=N)N)NC(C)=O)C(=O)N[C@@H](CCCNC(=N)N)C(N)=O [Peptide 91, Ac-RSRWRDWSRNFMR-NH2] (Ac-RSRWRDWSRNFMR-NH2) | >64 µg/mL | >64 µg/mL | 25 µg·days/mL | 16e ug/mL | – | – | – | –
CSCC[C@H](NC(=O)[C@H](Cc1ccccc1)NC(=O)[C@H](CC(N)=O)NC(=O)[C@H](CCCNC(=N)N)NC(=O)[C@H](C)NC(=O)[C@@H](NC(=O)[C@H](CC(=O)O)NC(=O)[C@H](CCCNC(=N)N)NC(=O)[C@H](Cc1c[nH]c2ccccc12)NC(=O)[C@H](CCCNC(=N)N)NC(=O)[C@H](CO)NC(=O)[C@H](CCCNC(=N)N)NC(C)=O)C(C)C)C(=O)N[C@@H](CCCNC(=N)N)C(N)=O [Peptide 92, Ac-RSRWRDVARNFMR-NH2] (Ac-RSRWRDVARNFMR-NH2) | >64 µg/mL | >64 µg/mL | 25 µg·days/mL | 8e ug/mL | – | – | – | –
CSCC[C@@H](NC(=O)[C@@H](Cc1ccccc1)NC(=O)[C@@H](CC(N)=O)NC(=O)[C@@H](CCCNC(=N)N)NC(=O)[C@@H](CO)NC(=O)[C@@H](Cc1c[nH]c2ccccc12)NC(=O)[C@@H](CC(=O)O)NC(=O)[C@@H](CCCNC(=N)N)NC(=O)[C@@H](Cc1c[nH]c2ccccc12)NC(=O)[C@@H](CCCNC(=N)N)NC(=O)[C@@H](CO)NC(=O)[C@@H](CCCNC(=N)N)NC(=O)CNC(=O)[C@H](NC(=O)[C@@H](CCCNC(=N)N)NC(=O)[C@@H](CO)NC(=O)[C@H](NC(=O)[C@@H](CCCNC(=N)N)NC(=O)[C@H](NC(C)=O)[C@H](C)O)C(C)C)[C@H](C)O)C(=O)N[C@H](CCCNC(=N)N)C(=O)N[C@H](CCCCN)C(=O)N[C@H](CCCCN)C(=O)N[C@H](CCCCN)C(=O)N[C@H](CCCCN)C(=O)N[C@H](CCCCN)C(=O)N[C@H](CCCCN)C(=O)N[C@H](CCCCN)C(=O)N[C@H](CCCCN)C(N)=O [Peptide 34, Ac-trvsrtgrsrwrdwsrnfmrkkkkkkkk-NH2] (Ac-[dT][dR][dV][dS][dR][dT]G[dR][dS][dR][dW][dR][dD][dW][dS][dR][dN][dF][dM][dR][dK][dK][dK][dK][dK][dK][dK][dK]-NH2) | >64 µg/mL | >64 µg/mL | 6 µg·days/mL | – | – | – | – | –
CC(=O)N[C@@H](C(=O)N[C@H](CCCNC(=N)N)C(=O)N[C@@H](C(=O)N[C@H](CO)C(=O)N[C@H](CCCNC(=N)N)C(=O)N[C@@H](C(=O)NCC(=O)N[C@H](CCCNC(=N)N)C(=O)N[C@H](CO)C(=O)N[C@H](CCCNC(=N)N)C(=O)N[C@H](Cc1c[nH]c2ccccc12)C(=O)N[C@H](CCCNC(=N)N)C(=O)N[C@H](CC(=O)O)C(=O)N[C@H](Cc1c[nH]c2ccccc12)C(=O)N[C@H](CO)C(=O)N[C@H](CCCNC(=N)N)C(=O)N[C@H](CC(N)=O)C(=O)N[C@H](Cc1ccccc1)C(=O)N[C@H](C)C(=O)N[C@H](CCCNC(=N)N)C(N)=O)[C@H](C)O)C(C)C)[C@H](C)O [Peptide 61, Ac-trvsrtgrsrwrdwsrnfar-NH2] (Ac-[dT][dR][dV][dS][dR][dT]G[dR][dS][dR][dW][dR][dD][dW][dS][dR][dN][dF][dA][dR]-NH2) | >64 µg/mL | >64 µg/mL | 12.5 µg·days/mL | – | – | – | – | –
CCCCCCCC(=O)N[C@H](CCCNC(=N)N)C(=O)N[C@H](CO)C(=O)N[C@H](CCCNC(=N)N)C(=O)N[C@H](Cc1c[nH]c2ccccc12)C(=O)N[C@H](CCCNC(=N)N)C(=O)N[C@H](CC(=O)O)C(=O)N[C@@H](C(=O)N[C@H](C)C(=O)N[C@H](CCCNC(=N)N)C(=O)N[C@H](CC(N)=O)C(=O)N[C@H](Cc1ccccc1)C(=O)N[C@H](CC(C)C)C(=O)N[C@H](CCCNC(=N)N)C(N)=O)C(C)C [Peptide 252, Octyl-rsrwrdvarnflr-NH2] (Octanoyl-[dR][dS][dR][dW][dR][dD][dV][dA][dR][dN][dF][dL][dR]-NH2) | 16 µg/mL (≈ 8.62 µM) | 64 µg/mL (≈ 34.5 µM) | – | 64e ug/mL | 16 µg/mL (≈ 8.62 µM) | 16 µg/mL (≈ 8.62 µM) | 2 µg/mL (≈ 1.08 µM) | 16c ug/mL
